Results reported in patent publication US20150079176A1, “ANTI-OXIDANT SYNERGY FORMULATION NANOEMULSIONS TO TREAT CANCER” (University of Massachusetts Lowell, priority 2005, published 2015).

Columns and labels:
HTB-20 = HTB-20 cell culture growth (Coulter Counter cell counting); type: cell-based, Human
Procedure: (§1) Human breast cancer cell lines MCF-7 and HTB-20 were subcultured in flasks accompanied by daily changes of medium comprising RPMI 1640 supplemented with fetal bovine serum (10%, v/v). The cultures were maintained in a humidified chamber at 37° C. with 5% CO2 and 95% air. The cells were harvested at confluency by trypsinzation and suspended at a cell density of 200,000 to 300,000 cells/ml in a small volume of the growth medium to be used.
(§2) In a typical experiment in which the effects of the anti-cancer nanoemulsions on cell growth were to be examined, aliquots of the cell suspension containing about 20,000 to 30,000 cells were replicately plated in dishes containing 3 ml of the growth medium consisting of RPMI 1640 supplemented with charcoal-stripped fetal bovine serum (5%, v/v) and of penicillin-streptomycin (10 units and 10 μg, respectively) and mycostatin (2.5 units/ml) and incubated at 37° C. in the humidified chamber. On day 1 when the cell adhered firmly to the bottom surface of the dishes, the medium was aspirated off and the cells then challenged by the anti-cancer nanoemulsions; groups of replicate dishes received 3 ml of fresh growth medium containing either ASF or tamoxifen at the indicated concentrations. The control groups received only the microfluidized nanoemulsion and ASF or tamoxifen in free solution.
(§3) At various time intervals (i.e., Days 1-17), triplicate dishes were withdrawn for cell counting; after removal of the medium by aspiration, the adhered cells were washed twice with 1 ml of Eagles balanced salt solution without Ca^2+ and Mg^2+ and dislodged from the dish by trypsinization involving the incubation of 0.5 ml of trypsin-EDTA solution (IX) for 5 minutes at 37° C., after which the protease reaction was stopped by adding 2.5 ml of a “stop” medium consisting of RPMI 1640 and 5% fetal calf serum. The cells were then collected by centrifugation with subsequent suspension in the medium. An aliquot of the suspension was subjected to cell counting using a Coulter Counter (data expressed as 10^6 cells per dish).

MCF-7 = MCF-7 cell culture growth (Coulter Counter cell counting); type: cell-based, Human
Procedure: as §1, §2, §3

For `CC/C(=C(\c1ccccc1)c1ccc(OCCN(C)C)cc1)c1ccccc1` [Tamoxifen In Free Solution, tamoxifen], the cell count (HTB-20; HTB-20, 1 day of incubation) was 4 106 cells per dish, the cell count (HTB-20; HTB-20, 3 days of incubation) was 12 106 cells per dish and the cell count (HTB-20; HTB-20, 5 days of incubation) was 24 106 cells per dish. For the same compound, the cell count (HTB-20; HTB-20, 7 days of incubation) was 28 106 cells per dish, the cell count (HTB-20; HTB-20, 10 days of incubation) was 41 106 cells per dish and the cell count (HTB-20; HTB-20, 12 days of incubation) was 51 106 cells per dish. For the same compound, the “improvement of time-course of tamoxifen-induced apoptosis” value (HTB-20; HTB-20, applied as a microfluidized nanoemulsion vs free solution) was 2-10 fold, the cell count (MCF-7; MCF-7, 5 days of incubation) was 5 106 cells per dish and the cell count (MCF-7; MCF-7, 8 days of incubation) was 19 106 cells per dish. The cell count (MCF-7; MCF-7, 10 days of incubation) was 25 106 cells per dish, the cell count (MCF-7; MCF-7, 12 days of incubation) was 33 106 cells per dish and the cell count (MCF-7; MCF-7, 15 days of incubation) was 50 106 cells per dish. The cell count (MCF-7; MCF-7, 17 days of incubation) was 67.5 106 cells per dish and the “improvement of time-course of tamoxifen-induced apoptosis” value (MCF-7; MCF-7, applied as a microfluidized nanoemulsion vs free solution) was 2-10 fold.
